Source: patent US6866861B1, “Method and composition for enhancing milk component concentrations” (Land O'Lakes, Inc., priority 1999, dated 2005)

System: cows
Test: Abomasal infusion of glycerol in cows, different cows (Example 5)
Format: in vivo, cow
Settings: for Fat / Lactose / Total Solids / True Protein: 150 g/cow/day abomasal, average of 3 cows
Protocol: To determine the weight percent total solids, wet basis, in a sample, the actual weight of total solids is determined by analyzing the sample in accordance with Method #925.23 (33.2.09) of Official Methods of Analysis, Association of Official Analytical Chemists (AOAC) (16th Ed., 1995). The weight percent total solids, wet basis, is then calculated by dividing the actual weight of total solids by the actual weight of the sample. The weight percent of true protein, wet basis, for a particular sample is calculated after first determining the wet basis weight percent of total Kjeldahl nitrogen and the wet basis weight percent of non-protein nitrogen in the sample. The wet basis weight percent of total Kjeldahl nitrogen in the sample is determined using the method referenced above. The wet basis weight percent of non-protein nitrogen (NPN) in the sample is determined in accordance with Method #991.21 (33.2.12) of Official Methods of Analysis, Association of Official Analytical Chemists (AOAC) (16th Ed., 1995). The weight percent of true protein, wet basis, in the sample is then determined by subtracting the wet basis weight percent of non-protein nitrogen in the sample from the wet basis weight percent of total Kjeldahl nitrogen in the sample. To determine the weight percent lactose, wet basis, in a liquid sample, the weight of the liquid sample is first determined. The actual weight of lactose in the liquid sample may then be determined using analysis kit number 176-303, that is available from Boehringer-Mannheim of Indianapolis, Ind. in accordance with the procedural instructions included with analysis kit number 176-303. The weight percent lactose, wet basis, in the liquid sample is then calculated by dividing the actual weight of lactose in the liquid sample by the actual weight of the liquid sample. To determine the weight percent fat, wet basis, in a sample, the actual weight of fat in the sample is determined in accordance with Method #974.09 (33.7.18) of Official Methods of Analysis, Association of Official Analytical Chemists (AOAC) (16th Ed., 1995). The weight percent fat, wet basis, is then calculated by dividing the actual weight of fat in the sample by the actual weight of the sample. In this example, glycerol was abomasally infused into three different cows at a rate of 150 grams per cow per day during a 14 day test period. The cows used in this Example were different from the cows used in Example 4. The rations provided to the cows during the period extending from day 0, prior to abomasal infusion of glycerol, through day 14 of the test period were the same. The only difference in feeding of the cows between day 0 and days 1-14 of the test period were that during days 1-14 the cows were abomasally infused with the dosage of 150 grams of glycerol per cow per day. The glycerol was not combined with any other materials prior to being abomasally infused into the cattle. Milk from the three cows was collected and analyzed prior to infusion (on day 0) and also was collected and analyzed on the third, seventh and fourteenth day of the test period. The results presented in Table 5 below for each milk component for each particular day are averages for the milk collected from the three different cows. The net change for the different milk components presented in Table 5 was calculated by averaging the results of days 3, 7 and 14 for a particular milk component and subtracting the results presented for day 0 for the particular milk component.

[1] = milk, average of days 3, 7, 14 minus day 0

SMILES: OCC(O)CO [glycerol]
- weight percent of fat, true protein, lactose, and total solids in the milk (conclusion in words) (abomasal infusion, 14 day test period): net increase
- Fat (milk, Day 3): 3.39 Wt %
- Lactose (milk, Day 3): 4.86 Wt. %
- Total Solids (milk, Day 3): 12.04 Wt. %
- True Protein (milk, Day 3): 3.04 Wt. %
- Fat (milk, Day 7): 3.25 Wt %
- Lactose (milk, Day 7): 5.19 Wt. %
- Total Solids (milk, Day 7): 12.17 Wt. %
- True Protein (milk, Day 7): 2.98 Wt. %
- Fat (milk, Day 14): 3.32 Wt %
- Lactose (milk, Day 14): 4.87 Wt. %
- Total Solids (milk, Day 14): 11.99 Wt. %
- True Protein (milk, Day 14): 3.05 Wt. %
- Fat, Net Change [1]: +0.25 Wt %
- Lactose, Net Change [1]: +0.08 Wt. %
- Total Solids, Net Change [1]: +0.44 Wt. %
- True Protein, Net Change [1]: +0.10 Wt. %
